Read-outs that look alike come from different tables or passages of the source.
Experiments:
[1] = tested on: myelin basic protein (MBP); assay: Myelin basic protein immunohistochemistry in amygdala; type: in vivo, rat; settings: 10 mg/kg IP, 24 h
Protocol: Immunohistochemistry: The in-life portion of the study was conducted at WuXi Apptec (Cranbury, NJ). Sectioning and staining of brains took place at Neuroscience Associates (NSA, Knoxville, TN). […] Brains were post-fixed in PFA before shipment to NSA for processing and staining. Hemisected brains were mounted, sectioned and stained using standard protocols with myelin-basic protein primary antibody (MBP SMI-99, 1:5000, Biolegend, San Diego, CA) and anti-mouse biotinylated secondary antibody (BA-2001, Vector Laboratories, Newark, CA). Slides were imaged using a Huron Digital Pathology TissueScope LE120 whole slide scanning system. 20× objective was used with a 0.4 μm/pixel resolution.

[2] = Methylone PTSD case series with long-term follow-up (CGI-I, safety); type: in vivo, human
From the text: The patients were not given structured psychotherapy in conjunction with methylone treatment, which differs from recent studies of MDMA that emphasize the importance of a manualized psychedelic-assisted psychotherapy model.
No protected health information was disclosed, and no consent was obtained from patients for use of their archival data. Case narratives were systematically compiled from data collected as part of routine clinical work. Diagnoses were confirmed by an experienced clinician using semi-structured interviews. Baseline symptom severity was evaluated using the Clinical Global Impressions Scale-Severity (CGI-S). Symptom improvement was evaluated using the Clinical Global Impressions Scale-Improvement (CGI-I) following dosing. […] Because these case narratives were examined retrospectively from routine clinical care records, and not gathered prospectively in a research study, more specific validated rating scales for assessing PTSD symptoms were not available. Additionally, follow-up varied, with the length of follow-up ranging from one week (Case 2) to 15 years (Case 16).
Dosing summary: Methylone was administered orally. Other medications were not changed during methylone treatment. […] In several cases, treatment was continued, and, in some cases, the dose was further escalated in later sessions (see Table 5). Booster doses were included for 19 patients in one or more of the sessions. Starting doses were between 100 and 270 mg, and these as well as booster doses were selected based on clinical judgement.

[3] = rats, intraperitoneal; cited from earlier work
[4] = cited from earlier work
5HT5A = target: T1, 5HT5A (Homo sapiens, UniProt P47898); assay: GPCRmax screen, agonist mode, 5HT5A; type: cell-based; settings: 1 or 10 mM
T1 construct: host or cells: PathHunter cell lines
T1 sequence (P47898 whole entry): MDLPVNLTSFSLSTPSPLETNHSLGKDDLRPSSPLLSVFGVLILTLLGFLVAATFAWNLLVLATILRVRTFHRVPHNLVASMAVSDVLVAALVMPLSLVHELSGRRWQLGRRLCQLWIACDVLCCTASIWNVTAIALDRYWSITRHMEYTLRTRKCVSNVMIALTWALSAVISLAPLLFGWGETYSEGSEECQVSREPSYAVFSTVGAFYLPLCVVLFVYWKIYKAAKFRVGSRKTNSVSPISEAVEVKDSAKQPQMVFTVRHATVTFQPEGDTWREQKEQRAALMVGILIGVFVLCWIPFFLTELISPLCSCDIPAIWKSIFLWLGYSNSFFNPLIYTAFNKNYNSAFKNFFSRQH

DAT = DAT (Rattus norvegicus, UniProt P23977); assay: [3H]DA uptake inhibition in rat brain synaptosomes; settings: read-out: Reuptake inhibition: IC50; rat brain synaptosomes
Chain of DAT (P23977 whole entry): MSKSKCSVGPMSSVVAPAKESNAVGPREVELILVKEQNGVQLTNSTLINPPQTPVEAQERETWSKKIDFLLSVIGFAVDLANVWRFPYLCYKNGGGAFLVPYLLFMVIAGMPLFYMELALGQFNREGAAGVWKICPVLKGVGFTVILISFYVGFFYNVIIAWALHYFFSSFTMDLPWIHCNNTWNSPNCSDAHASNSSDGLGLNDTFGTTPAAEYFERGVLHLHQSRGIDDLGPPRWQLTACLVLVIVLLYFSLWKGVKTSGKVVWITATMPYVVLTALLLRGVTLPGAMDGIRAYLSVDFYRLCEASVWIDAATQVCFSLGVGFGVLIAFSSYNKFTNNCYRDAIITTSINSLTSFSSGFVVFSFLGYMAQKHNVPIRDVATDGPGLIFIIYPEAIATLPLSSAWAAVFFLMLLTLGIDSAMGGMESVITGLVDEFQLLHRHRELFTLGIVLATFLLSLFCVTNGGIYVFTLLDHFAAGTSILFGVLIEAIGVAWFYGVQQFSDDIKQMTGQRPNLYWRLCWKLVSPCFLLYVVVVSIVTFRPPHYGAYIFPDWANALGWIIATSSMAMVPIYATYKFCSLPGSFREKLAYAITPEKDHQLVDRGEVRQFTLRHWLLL

[5] = tested on: Sprague Dawley rat neurons; assay: Neurite outgrowth in E18 cortical cultures; type: cell-based; settings: 10 μM, applied day 1, fixed day 3-4
Protocol: Neuroplasticity is defined as changes in the structure, connections and function of neurons, including neurite outgrowth. […] E18 cortical cultures were harvested and plated on culture dishes. […] Neurite length was measured using ImageJ software.

168 GPCRs [6] = target: T2, 168 GPCRs (Homo sapiens, UniProt P32239); assay: β-arrestin GPCR screen (PathHunter / GPCRmax), agonist mode; type: cell-based; settings: CCKBR, 1 uM
T2 construct: host or cells: PathHunter cell lines
T2 sequence (P32239 whole entry): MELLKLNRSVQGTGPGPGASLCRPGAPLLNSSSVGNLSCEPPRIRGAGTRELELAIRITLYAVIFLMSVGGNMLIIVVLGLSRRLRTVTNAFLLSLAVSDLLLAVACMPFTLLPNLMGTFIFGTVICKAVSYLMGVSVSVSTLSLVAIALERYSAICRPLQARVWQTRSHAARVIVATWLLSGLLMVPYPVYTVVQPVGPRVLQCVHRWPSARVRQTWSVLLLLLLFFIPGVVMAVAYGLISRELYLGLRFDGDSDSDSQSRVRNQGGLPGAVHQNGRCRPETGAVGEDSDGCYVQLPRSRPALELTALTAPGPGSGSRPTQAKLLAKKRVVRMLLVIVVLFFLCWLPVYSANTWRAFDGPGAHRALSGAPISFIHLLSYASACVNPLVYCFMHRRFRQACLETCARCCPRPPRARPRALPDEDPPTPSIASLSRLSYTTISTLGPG
Protocol: (§1) For agonist determination, cells were incubated with sample to induce response. […] Vehicle concentration was 1%.

168 GPCRs [7] = target: T3, 168 GPCRs (Homo sapiens, UniProt P35408); assay: as above; type: cell-based; settings: PTGER4, 1 uM
T3 construct: host or cells: PathHunter cell lines
T3 sequence (P35408 whole entry): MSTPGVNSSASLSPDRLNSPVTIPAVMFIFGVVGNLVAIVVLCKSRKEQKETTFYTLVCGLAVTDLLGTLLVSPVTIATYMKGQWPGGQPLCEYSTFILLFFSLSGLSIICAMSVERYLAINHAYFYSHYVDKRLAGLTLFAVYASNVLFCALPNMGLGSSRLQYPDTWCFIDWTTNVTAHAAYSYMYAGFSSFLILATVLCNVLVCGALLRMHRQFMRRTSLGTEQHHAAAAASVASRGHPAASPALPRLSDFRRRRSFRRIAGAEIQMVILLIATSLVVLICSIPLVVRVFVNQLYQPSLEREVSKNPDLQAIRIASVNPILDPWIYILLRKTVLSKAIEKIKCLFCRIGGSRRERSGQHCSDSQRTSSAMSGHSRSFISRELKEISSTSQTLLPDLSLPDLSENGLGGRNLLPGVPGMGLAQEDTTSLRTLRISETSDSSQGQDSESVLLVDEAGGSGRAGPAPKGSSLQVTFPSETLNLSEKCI
Protocol: as §1

168 GPCRs [8] = target: T4, 168 GPCRs (Homo sapiens, UniProt P32249); assay: as above; type: cell-based; settings: EBI2, 1 uM
T4 construct: host or cells: PathHunter cell lines
T4 sequence (P32249 whole entry): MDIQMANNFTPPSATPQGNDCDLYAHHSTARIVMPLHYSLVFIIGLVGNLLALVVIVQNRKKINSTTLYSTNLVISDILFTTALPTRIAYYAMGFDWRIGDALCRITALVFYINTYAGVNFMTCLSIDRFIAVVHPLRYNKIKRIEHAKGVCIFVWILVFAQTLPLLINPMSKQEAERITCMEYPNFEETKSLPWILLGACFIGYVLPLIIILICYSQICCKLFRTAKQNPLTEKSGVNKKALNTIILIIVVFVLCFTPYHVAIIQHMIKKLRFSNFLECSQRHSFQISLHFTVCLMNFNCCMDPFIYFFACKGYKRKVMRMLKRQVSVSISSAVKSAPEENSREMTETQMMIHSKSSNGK
Protocol: as §1

168 GPCRs [9] = target: T5, 168 GPCRs (Homo sapiens, UniProt P49238); assay: as above; type: cell-based; settings: CX3CR1, 1 uM
T5 construct: host or cells: PathHunter cell lines
T5 sequence (P49238 whole entry): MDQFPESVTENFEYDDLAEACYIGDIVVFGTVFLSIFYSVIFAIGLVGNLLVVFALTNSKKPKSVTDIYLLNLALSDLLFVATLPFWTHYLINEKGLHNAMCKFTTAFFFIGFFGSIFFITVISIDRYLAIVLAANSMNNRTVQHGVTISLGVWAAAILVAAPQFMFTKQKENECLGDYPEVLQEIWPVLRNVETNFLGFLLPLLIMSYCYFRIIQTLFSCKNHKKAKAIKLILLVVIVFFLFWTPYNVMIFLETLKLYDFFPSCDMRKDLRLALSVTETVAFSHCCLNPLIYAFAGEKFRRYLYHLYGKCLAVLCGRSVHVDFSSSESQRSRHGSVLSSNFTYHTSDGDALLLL
Protocol: as §1

168 GPCRs [10] = assay: as above; type: cell-based; settings: CCR, 10 uM
Protocol: as §1

[11] = Cued fear conditioning / extinction training and recall; type: in vivo, mouse
Protocol: Methods: Cued fear conditioning was performed in C57BL/6J mice. On day 1, animals were placed in the chambers and presented with a training session (CS-US pairing). The training consisted of a 2-minute habituation followed by a 30-second, 80 dB tone; during the last 2 seconds of the tone animals received a 1 mA foot shock. This US-CS procedure occurred once for a total of one paired presentation of tone and shock. Freezing behavior (immobility) was recorded in 5-10-see intervals during the session. Percent baseline freezing behavior was determined in the 2-minute habituation period. On day 3, animals were placed in context B, in which tactile and odor cues differed from context A. Following a 2 minute acclimation period animals received 4×30 sec presentations of the CS (tone) in the absence of the US (footshock), with a 45 sec interval between presentations. Freezing was recorded in 5-10-sec intervals to measure baseline freezing response to the altered context, and freezing response to each tone cuc presentation. […] On day 4 (Post-Extinction Testing in Drug-Free State), animals were placed in Context B. Following a 2 min acclimation period, animals received 4×30 sec extinction tone duration presentations of the CS (tone) in the absence of the US (footshock), with a 45 sec interval between presentations. Freezing was recorded in 5-10-sec intervals to measure baseline freezing response to the altered context, and freezing response to each tone cue presentation.

serotonin transporter = serotonin transporter (Homo sapiens, UniProt P31645); settings: cited from earlier work
Chain of serotonin transporter (P31645 whole entry): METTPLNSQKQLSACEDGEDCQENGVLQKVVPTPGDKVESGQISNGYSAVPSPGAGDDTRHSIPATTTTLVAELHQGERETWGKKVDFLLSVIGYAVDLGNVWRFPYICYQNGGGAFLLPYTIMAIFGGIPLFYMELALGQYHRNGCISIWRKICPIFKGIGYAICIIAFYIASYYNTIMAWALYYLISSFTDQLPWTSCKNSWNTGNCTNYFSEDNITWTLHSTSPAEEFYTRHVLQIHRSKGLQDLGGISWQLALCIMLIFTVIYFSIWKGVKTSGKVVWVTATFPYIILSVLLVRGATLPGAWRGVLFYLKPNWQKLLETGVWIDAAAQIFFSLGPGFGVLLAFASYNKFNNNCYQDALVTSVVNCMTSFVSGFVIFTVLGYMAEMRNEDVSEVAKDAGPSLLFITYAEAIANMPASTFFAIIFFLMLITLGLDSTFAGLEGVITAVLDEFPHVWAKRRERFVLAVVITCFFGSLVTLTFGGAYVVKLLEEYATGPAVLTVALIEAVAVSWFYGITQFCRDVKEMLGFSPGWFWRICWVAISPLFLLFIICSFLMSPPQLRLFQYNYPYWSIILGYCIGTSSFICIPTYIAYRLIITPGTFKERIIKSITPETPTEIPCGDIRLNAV

5HT2A receptor = target: T6, 5HT2A receptor (Homo sapiens, UniProt P28223); assay: GPCRmax screen, agonist mode, 5HT2A; type: cell-based; settings: 1 or 10 mM
T6 construct: host or cells: PathHunter cell lines
T6 sequence (P28223 whole entry): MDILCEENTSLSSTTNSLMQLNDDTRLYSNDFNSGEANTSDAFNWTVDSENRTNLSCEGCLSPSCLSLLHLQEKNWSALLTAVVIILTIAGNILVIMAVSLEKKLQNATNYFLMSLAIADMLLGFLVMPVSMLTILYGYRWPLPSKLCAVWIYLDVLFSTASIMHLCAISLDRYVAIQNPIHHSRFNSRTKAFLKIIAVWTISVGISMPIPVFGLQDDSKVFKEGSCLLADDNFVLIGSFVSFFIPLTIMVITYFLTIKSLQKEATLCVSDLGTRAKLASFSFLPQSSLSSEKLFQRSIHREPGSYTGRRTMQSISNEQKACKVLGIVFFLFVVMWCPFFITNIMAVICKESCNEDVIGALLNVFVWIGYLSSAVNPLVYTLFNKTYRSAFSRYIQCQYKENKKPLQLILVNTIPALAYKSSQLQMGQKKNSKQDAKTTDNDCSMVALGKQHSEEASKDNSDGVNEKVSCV

Compound: CNC(C)C(=O)c1ccc2c(c1)OCO2 (centres unmarked) [Methylone, 3,4-methylenedioxy-N-methylcathinone]
- MBP in basolateral and central nuclei of the amygdala vs. vehicle [1]: significant reduction in MBP
- Adverse events noted ([2]; 21 PTSD patients): four adverse events were noted in three of the 21 patients
- Patients much improved or very much improved per CGI-I ([2]; 21 PTSD patients): 81%
- Patients reporting a durable effect ([2]; of 17 patients with durability information): 16
- Patients achieving CGI-I 1 (very much improved) ([2]; of 21 PTSD patients): 9 patients
- Patients achieving CGI-I 2 (much improved) ([2]; of 21 PTSD patients): 8 patients
- Patients achieving a CGI-I of 1 or 2 ([2]; of 21 PTSD patients): 17 patients
- Patients achieving CGI-I 1 or 2 ([2]; patients with a single dose session (n=9)): 89%
- Patients with initial improvement after the initial session ([2]; patients with multiple dosing sessions (n=12)): 83%
- half-life [3]: 1 to 2 h
- Cmax (geometric mean) ([4]; 50 mg oral, N = 3): 151.2 µg/L
- AUC10hr (geometric mean) ([4]; 50 mg oral): 725 µg·h/L
- AUC24hr (geometric mean) ([4]; 50 mg oral): 988 µg·h/L
- AUCinf (geometric mean) ([4]; 50 mg oral): 1062 µg·h/L
- Half-life (geometric mean) ([4]; 50 mg oral): 6.2 h
- Tmax (median) ([4]; 50 mg oral): 1.5 h
- Cmax (geometric mean) ([4]; 100 mg oral, N = 6): 283.9 µg/L
- AUC10hr (geometric mean) ([4]; 100 mg oral): 1554 µg·h/L
- AUC24hr (geometric mean) ([4]; 100 mg oral): 2232 µg·h/L
- AUCinf (geometric mean) ([4]; 100 mg oral): 2410 µg·h/L
- Half-life (geometric mean) ([4]; 100 mg oral): 6.0 h
- Tmax (median) ([4]; 100 mg oral): 2.5 h
- Cmax (geometric mean) ([4]; 150 mg oral, N = 5): 340.2 µg/L
- AUC10hr (geometric mean) ([4]; 150 mg oral): 2153 µg·h/L
- AUC24hr (geometric mean) ([4]; 150 mg oral): 3165 µg·h/L
- AUCinf (geometric mean) ([4]; 150 mg oral): 3509 µg·h/L
- Half-life (geometric mean) ([4]; 150 mg oral): 6.7 h
- Cmax (geometric mean) ([4]; 200 mg oral, N = 7): 594.2 µg/L
- AUC10hr (geometric mean) ([4]; 200 mg oral): 3261 µg·h/L
- AUC24hr (geometric mean) ([4]; 200 mg oral): 4676 µg·h/L
- AUCinf (geometric mean) ([4]; 200 mg oral): 5116 µg·h/L
- Half-life (geometric mean) ([4]; 200 mg oral): 6.5 h
- Time to reach maximum concentrations (Tmax) ([4]; oral 50 mg to 200 mg): 1 to 2 h
- half-life ([4]; oral 50 mg to 200 mg): 6 to 7 h
- Agonist % activity (greatest activity detected) (5HT5A): 13.9%
- IC50 (DAT): 2300 nM
- Increase in neurite length vs. vehicle [5]: ~2 fold
- % Activity (168 GPCRs [6]): −1%
- % Activity (168 GPCRs [7]): 2.8%
- % Activity (168 GPCRs [8]): 0.5%
- % Activity (168 GPCRs [9]): 0%
- % Activity (168 GPCRs [10]): 3.6%
- Persistence of effect post dose ([11]; 30 mg/kg IP): at least 11 days
- Effect on fear extinction training and testing ([11]; 30 mg/kg IP, 30 min before extinction training on Day 3): rapid, robust and long-lasting beneficial effect on fear extinction training and testing
- Fear extinction training on day 3 ([11]; 10, 20 or 30 mg/kg IP): All doses significantly improved fear extinction training on day 3
- Affinity for the serotonin transporter, times lower compared to MDMA (serotonin transporter): 3 ×
- Agonist % activity (5HT2A receptor): no agonist or antagonist activity
